Like-named read-outs stand apart in the source and are kept apart here. Marks after values point to notes of the source that are not given here.
Experiments:
MAO = settings: cited from earlier work
human MAO-B [1] = biological target: T1, human MAO-B (Homo sapiens, UniProt P27338); settings: cited from earlier work
T1 construct: purchased Sigma-Aldrich (Dorset, UK); host or cells: insect cells (membranes)
T1 sequence (P27338 1-520): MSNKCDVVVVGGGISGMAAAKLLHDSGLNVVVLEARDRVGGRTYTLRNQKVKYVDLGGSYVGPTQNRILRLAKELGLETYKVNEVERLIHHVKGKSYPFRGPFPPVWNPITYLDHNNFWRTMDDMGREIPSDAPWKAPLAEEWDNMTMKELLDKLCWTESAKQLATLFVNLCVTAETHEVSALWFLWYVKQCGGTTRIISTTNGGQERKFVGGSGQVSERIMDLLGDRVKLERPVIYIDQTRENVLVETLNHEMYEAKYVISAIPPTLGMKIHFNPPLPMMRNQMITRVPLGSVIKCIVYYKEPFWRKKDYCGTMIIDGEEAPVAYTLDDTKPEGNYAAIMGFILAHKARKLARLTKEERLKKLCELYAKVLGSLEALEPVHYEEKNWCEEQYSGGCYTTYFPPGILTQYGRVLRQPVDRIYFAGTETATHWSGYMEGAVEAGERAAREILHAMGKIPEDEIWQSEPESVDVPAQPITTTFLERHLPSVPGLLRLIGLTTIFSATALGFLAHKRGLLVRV

purified human MAO-A = biological target: T2, purified human MAO-A (Homo sapiens, UniProt P21397); test: Anaerobic spectral kinetics of flavin reduction and adduct formation (stopped-flow / timed spectra); assay type: biochemical; settings: for rate of anaerobic reduction of FAD (absorbance decrease at 495 nm) / rate of adduct formation (absorbance increase at 410 nm): purified MAO-A
T2 construct: made in house; host or cells: Saccharomyces cerevisiae
T2 sequence (P21397 1-527): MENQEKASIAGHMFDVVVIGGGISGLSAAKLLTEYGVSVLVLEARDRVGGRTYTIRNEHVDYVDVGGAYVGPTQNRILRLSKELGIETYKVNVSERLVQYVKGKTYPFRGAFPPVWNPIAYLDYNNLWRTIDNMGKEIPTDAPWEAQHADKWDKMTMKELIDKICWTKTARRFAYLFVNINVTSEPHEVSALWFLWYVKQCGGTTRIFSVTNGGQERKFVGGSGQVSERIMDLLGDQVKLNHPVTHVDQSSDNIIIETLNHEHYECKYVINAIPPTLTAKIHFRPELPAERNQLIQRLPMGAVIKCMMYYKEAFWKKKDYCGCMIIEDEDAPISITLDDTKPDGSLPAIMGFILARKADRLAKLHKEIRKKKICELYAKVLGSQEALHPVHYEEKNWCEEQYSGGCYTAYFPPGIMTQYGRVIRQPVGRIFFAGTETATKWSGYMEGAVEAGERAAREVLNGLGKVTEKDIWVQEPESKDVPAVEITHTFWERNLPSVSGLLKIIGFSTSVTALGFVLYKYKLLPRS
Procedure: Purified human MAO-A was dialyzed against 50 mM HEPES pH 7.5 for 1 h and concentrated to at least 40 μM before loading into the rapid-mixing device syringes. MAO-A (40 μM) was mixed with an equal volume of 50 mM HEPES pH 7.5 containing excess inactivating compound in the stopped-flow spectrophotometer (Applied Photophysics SX20) at 30 °C. For anaerobic experiments, the system was flushed with 10 mM dithionite before rinsing well with buffer containing 30 mM glucose, 1 U/mL glucose oxidase, and 24 U/mL catalase. Both the MAO-A and the compound to be added were flushed with argon before the addition of 30 mM glucose, 1 U/mL glucose oxidase, and 24 U/mL catalase to ensure anaerobiosis during the experiment. Absorbance changes were measured in triplicate at three wavelengths (410, 456, and 495 nm). The absorbance acquisition rate was set at 1000 Hz for the interval 0–0.5 s and 4 Hz for the interval 0.5–1000 s. The absorbance changes were analyzed using single or double exponential fits in the built-in software as appropriate.
Figure 7 Time courses for absorbance changes in MAO-A incubated anaerobically with propargylamine inactivators.

MAO-A [2] = biological target: T3, MAO-A (Homo sapiens, UniProt P21397); set-up: purchased Sigma-Aldrich (Dorset, UK); host or cells: insect cells (membranes); method as in PMID 27977122; settings: cited from earlier work
T3 sequence (P21397 1-527): T2 sequence (P21397 1-527)

MAO-A [3] = biological target: T3, MAO-A; test: Activity remaining or recovered after anaerobic incubation with inactivator; assay type: biochemical; set-up: made in house; host or cells: Saccharomyces cerevisiae
Description: MAO-A was made anaerobic by cycling with vacuum and argon. […] After the admission of oxygen to the cuvette, the 420 nm absorbance increased rapidly, accompanied by loss of activity.
In order to find a cause for the 600 nm absorbance, we considered whether oxidation could occur at either carbon adjacent to the amine nitrogen in MAO-A. (MAO-B is inactivated by F2MPA [19], so presumably, the normal allenyl imine product is formed by oxidation at the carbon between the amine and the propargyl group, CαP.) The alternative furfuryl imine product that would result from oxidation at the carbon on the other side of the amine nitrogen (between the amine and the furan ring, CαF) is shown in Scheme 2. Chemical analysis was attempted to detect the putative products of oxidation and molecular modeling to explore the interactions of F2MPA with MAO-A and MAO-B.

MAO-A [4] = biological target: T3, MAO-A; test: Partition ratio by long-term incubation; assay type: biochemical; set-up: made in house; host or cells: Saccharomyces cerevisiae; settings: incubation at 30 °C up to 10 days
[5] = set-up: method as in PMID 16848670; settings: depression; cited from earlier work
MAO-A [6] = biological target: T3, MAO-A; test: IC50 after 30 min preincubation, coupled assay with saturating substrate; assay type: biochemical; set-up: purchased Sigma-Aldrich (Dorset, UK); host or cells: insect cells (membranes); settings: ratio of IC50 without/with 30 min preincubation
Procedure: (§1) The IC50 determined after a fixed incubation time has become a routine way to compare inhibition by new inactivators, although both binding and the rate of inactivator oxidation influence the measurement.
(§2) The direct spectrophotometric assay using purified MAO-A (30–50 nM) was added last to a 1 mL final volume of 50 mM potassium phosphate pH 7.5 containing inhibitor (0–100 μM) and 0.3 mM kynuramine (equivalent to 2× KM). The increase in absorbance was followed at 314 nm in a Shimadzu UV-2101 spectrophotometer. The coupled assay in black 96-well plates (Eppendorf UK Ltd., Stevenage, UK) used tyramine, Ampliflu™ Red (AR), horseradish peroxidase (HRP) and membrane-bound human MAO-A and MAO-B purchased from Sigma-Aldrich (Dorset, UK). Final concentrations were 50 μM AR, 1 U/mL HRP, and 1 nM enzyme. The substrate was tyramine either at 2× KM (0.8 mM for MAO-A or 0.32 mM for MAO-B) for reversible binding or at 1 mM to assess remaining active MAO after incubation with the inactivators.

MAO-A [7] = biological target: T3, MAO-A; test: Time-dependent inactivation, Kitz-Wilson analysis; assay type: biochemical; set-up: purchased Sigma-Aldrich (Dorset, UK); host or cells: insect cells (membranes)
Procedure: (§3) Rates (as relative fluorescence units per second, rfu/s) were analyzed as the log of the fractional activity remaining compared to control against time to obtain kobs.

MAO-A [8] = biological target: T3, MAO-A; settings: read-out: MAO-A IC50 AR Assay; without preincubation, tyramine 2× KM (0.8 mM); mean ± SD of 2–4 experiments
Procedure: (§4) The binding of these mechanism-based inhibitors can be assessed by measuring the inhibition without preincubation, adding the enzyme last to the assay mixture with both substrate and inhibitor. […] The IC50 is not an absolute parameter, but rather is a comparative measure that depends on the type of inhibition and the substrate concentration.
as §2
(§5) Ki values were calculated using the global Michaelis–Menten analysis in PRISM from initial rate data for 6 substrate concentrations (tyramine) at 5 inhibitor concentrations.

human MAO-B [9] = biological target: T1, human MAO-B; assay type: biochemical
Procedure: as §1, §2

human MAO-B [10] = biological target: T1, human MAO-B; test: Time-dependent inactivation, Kitz-Wilson analysis; assay type: biochemical; settings: inactivation constant
Procedure: as §3

MAO-A [11] = biological target: T3, MAO-A; settings: read-out: MAO-A Ki Direct; ref Esteban et al. [18]; cited from earlier work
human MAO-B [12] = biological target: T1, human MAO-B; assay type: biochemical; settings: without preincubation, tyramine 2× KM (0.32 mM); mean ± SD of 2–4 experiments; read-out: MAO-B IC50 AR Assay
Procedure: as §4, §2, §5

MAO-A [13] = biological target: T3, MAO-A; set-up: purchased Sigma-Aldrich (Dorset, UK); host or cells: insect cells (membranes); settings: ratio of IC50 without/with 30 min preincubation; ref Malcomson et al. [40]; cited from earlier work
human MAO-B [14] = biological target: T1, human MAO-B; settings: ratio of IC50 without/with 30 min preincubation; ref Malcomson et al. [40]; cited from earlier work
[15] = Figure S4, anaerobic stopped-flow, 30 C

N[C@H]1C[C@@H]1c1ccccc1 [1S,2R-trans-2-phenylcyclopropylamine]
times more potent in vitro than the other enantiomer (MAO): 60 times

C#CCN(C)Cc1ccco1 [F2MPA, N-(furan-2-ylmethyl)-N-methylprop-2-yn-1-amine]
MAO-B kinact (human MAO-B [1]): 0.61 min⁻¹ | MAO-B kinact/KI (human MAO-B [1]): 0.0045 min^−1μM^−1 | Ki (human MAO-B [1]; inactivation constant): 135000 nM | time for completion of biphasic decrease in absorbance at 495 nm (purified human MAO-A; F2MPA 2 mM, MAO-A […] μM, anaerobic): more than 21 h | rate of anaerobic reduction of FAD (absorbance decrease at 495 nm) (purified human MAO-A; anaerobic): 0.0034 ± 0.0009 min⁻¹ | MAO-A kinact (MAO-A [2]): 0.087 min⁻¹ | MAO-A kinact/KI (MAO-A [2]): 0.0005 min^−1μM^−1 | Ki (MAO-A [2]; inactivation constant): 187000 nM | activity retained (MAO-A [3]; MAO-A incubated anaerobically […] with 0.5 mM): 7% | activity restored by overnight aerobic dialysis (MAO-A [3]; after […] anaerobic incubation with 0.5 mM): 88% | partition ratio (MAO-A [4]): > 1000

NNCCc1ccccc1 [Phenelzine]
patient response rates [5]: over 50%

C#CCN(C)Cc1cc2cc(OCCCC3CCN(Cc4ccccc4)CC3)ccc2n1C [ASS234, N-[[5-[3-(1-benzylpiperidin-4-yl)propoxy]-1-methylindol-2-yl]methyl]-N-methylprop-2-yn-1-amine]
MAO-A Enhancement (MAO-A [6]): 122 | Ki (MAO-A [7]): 45 nM | IC50 (MAO-A [8]): 33 ± 3 nM | rate of anaerobic reduction of FAD (absorbance decrease at 495 nm) (purified human MAO-A; anaerobic): 3.36 min⁻¹ | IC50 (human MAO-B [9]; read-out: MAO-B IC50 after 30 min preincubation, human MAO in insect cell membranes, saturating substrate): 120 ± 20 nM | Ki (human MAO-B [10]): 1740 nM | Ki (MAO-A [11]): 53 ± 14 nM | IC50 (human MAO-B [12]): 3200 ± 410 nM

N[C@H]1C[C@@H]1c1ccccc1 (racemic) [Tranylcypromine]
patient response rates [5]: over 50% | MAO-A Enhancement (MAO-A [13]): 100 ^a | MAO-B Enhancement (human MAO-B [14]): 54.7 ^a

C#CCN(C)Cc1ccccc1 [Pargyline]
MAO-A Enhancement (MAO-A [6]): 48 | k, 410 nm (adduct) (purified human MAO-A; [15]): 0.0043 s⁻¹ | k, 485 nm (reduction) (purified human MAO-A; [15]): 0.0047 s⁻¹ | rate of adduct formation (absorbance increase at 410 nm) (purified human MAO-A; anaerobic): 0.26 ± 0.03 min⁻¹ | rate of anaerobic reduction of FAD (absorbance decrease at 495 nm) (purified human MAO-A; anaerobic): 0.28 ± 0.02 min⁻¹ | MAO-B Enhancement (human MAO-B [9]; ratio of IC50 without/with 30 min preincubation): 292

C#CCN(C)[C@H](C)Cc1ccccc1 [Selegiline, (2R)-N-methyl-1-phenyl-N-prop-2-ynylpropan-2-amine]
MAO-A Enhancement (MAO-A [6]): 357 | rate of adduct formation (absorbance increase at 410 nm) (purified human MAO-A; anaerobic): 0.016 ± 0.003 min⁻¹ | rate of anaerobic reduction of FAD (absorbance decrease at 495 nm) (purified human MAO-A; anaerobic): 0.019 ± 0.002 min⁻¹
